Several values for one entry are separate records, joined by “and”; a condition that tells them apart may be missing. Identical values can stand only once. Counter-ions that a name gives are not always drawn. Like-named read-outs stand apart in the source and are kept apart here.
Tests used:
[1] = tested on: P. falciparum; details: read-out: EC50 against P. falciparum; ref 8j; cited from earlier work
[2] = biological target: M. tuberculosis DXR (MtDXR) (Mycobacterium tuberculosis, UniProt P9WNS1); format: biochemical; details: for times less active against MtDXR than 1 and 2: compared with parent compounds 1 and 2; for Ki: read-out: MtDXR Ki
Sequence of M. tuberculosis DXR (MtDXR) (P9WNS1 whole entry, looked up): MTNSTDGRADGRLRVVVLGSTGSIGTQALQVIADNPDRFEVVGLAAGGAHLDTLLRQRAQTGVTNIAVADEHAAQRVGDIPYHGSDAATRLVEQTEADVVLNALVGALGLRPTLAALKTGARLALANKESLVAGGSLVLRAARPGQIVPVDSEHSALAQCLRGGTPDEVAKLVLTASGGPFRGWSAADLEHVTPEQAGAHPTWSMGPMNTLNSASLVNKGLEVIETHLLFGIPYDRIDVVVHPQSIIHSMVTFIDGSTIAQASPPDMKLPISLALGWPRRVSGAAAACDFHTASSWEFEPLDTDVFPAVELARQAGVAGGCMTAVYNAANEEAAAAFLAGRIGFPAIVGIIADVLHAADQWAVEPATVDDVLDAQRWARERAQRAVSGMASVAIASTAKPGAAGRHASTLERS

[3] = tested on: MtDXR; details: read-out: MtDXR IC50; using […] of Mn2+; cited from earlier work
[4] = background statement, no reference given; cited from earlier work
[5] = tested on: DXR; details: read-out: DXR IC50; ref 9b; cited from earlier work
[6] = biological target: E. coli DXR (EcDXR) (Escherichia coli, UniProt P45568); experiment: biochemical; format: biochemical
Sequence of E. coli DXR (EcDXR) (P45568 whole entry): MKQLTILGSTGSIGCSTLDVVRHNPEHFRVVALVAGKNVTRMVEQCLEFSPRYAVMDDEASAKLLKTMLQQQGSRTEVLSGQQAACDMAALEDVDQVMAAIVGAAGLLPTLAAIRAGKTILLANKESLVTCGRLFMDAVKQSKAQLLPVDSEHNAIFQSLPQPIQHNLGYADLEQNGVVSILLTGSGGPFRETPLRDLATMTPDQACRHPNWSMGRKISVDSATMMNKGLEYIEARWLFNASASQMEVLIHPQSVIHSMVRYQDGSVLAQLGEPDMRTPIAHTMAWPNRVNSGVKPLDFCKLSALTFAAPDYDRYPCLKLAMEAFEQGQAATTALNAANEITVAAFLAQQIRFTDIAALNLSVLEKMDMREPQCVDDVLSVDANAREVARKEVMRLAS

[7] = tested on: EcDXR; details: read-out: Km of substrate for EcDXR; cited from earlier work
[8] = tested on: MtDXR; details: read-out: Km of substrate for MtDXR; ref 2d; cited from earlier work

SMILES	Ki [2] [µM]	Ki [6] [µM]	Ki ([6]; read-out: EcDXR Ki) [µM]	further results
O=CN(O)CCCP(=O)(O)O [Compound 1, Fosmidomycin]				EC50 [1]: 1.1 µM; times weaker binding / less active against MtDXR than EcDXR ([2]; Ki MtDXR vs Ki EcDXR): ~ 5 × and 5 ×; IC50 [3]: 0.08 µM; half-life in plasma [4]: ~ 1 h; oral availability [4]: poor oral availability
CC(=O)N(O)CCCP(=O)(O)O [Compound 2, FR900098, reference compound]				times weaker binding / less active against MtDXR than EcDXR [2]: ~ 6 ×
O=CN(O)CCC(c1ccc(Cl)c(Cl)c1)P(=O)(O)O (stereo not shown) [Compound 3, reference compound]				EC50 [1]: 0.09 µM; affinity loss to MtDXR compared to EcDXR ([2]; Ki MtDXR vs Ki EcDXR): 21 fold; times less active against MtDXR than 1 and 2 [2]: ~ 10 ×
CC(=O)N(O)CCC(c1ccc(Cl)c(Cl)c1)P(=O)(O)O (stereo not shown) [Compound 4, reference compound]				EC50 [1]: 0.25 µM; affinity loss to MtDXR compared to EcDXR ([2]; Ki MtDXR vs Ki EcDXR): 42 fold; times less active against MtDXR than 1 and 2 [2]: ~ 10 × and 10 ×
O=P(O)(O)C(Nc1ccc(Cl)cn1)P(=O)(O)O [Compound 6, reference compound]	> 100			times weaker binding / less active against MtDXR than EcDXR [2]: > 5 ×
O=c1ccc(-c2ccccc2)cn1O [Compound 7, reference compound]				times weaker binding / less active against MtDXR than EcDXR ([2]; Ki MtDXR vs Ki EcDXR): 31 ×; IC50 [5]: 1.4 µM
O=P(O)(O)Cc1ccc(-c2ccccc2)cn1 [Compound 9, 5-phenylpyridin-2-ylmethylphosphonic acid]				times as potent as 8 against EcDXR [6]: 5 ×; affinity loss to MtDXR compared to EcDXR ([2]; Ki MtDXR vs Ki EcDXR): 7 fold
O=P(O)(O)c1ccccn1 [Compound 11, Pyridin-2-ylphosphonic acid disodium salt]	> 100	> 49.7	> 100	inhibitory activity against EcDXR (in words) ([6]; up to 100 μM): essentially no activity
O=P(O)(O)CCc1ccccn1 [Compound 12, 2-(Pyridin-2-yl)ethylphosphonic acid disodium salt]	> 100			times less potent than 8 against EcDXR ([6]; Ki ratio to compound 8): ~ 8 ×
O=P(O)(O)CCCc1ccccn1 [Compound 13, 3-(Pyridin-2-yl)propylphosphonic acid disodium salt]	> 100			times less potent than 8 against EcDXR ([6]; Ki ratio to compound 8): ~4 ×
O=P(O)(O)Cc1cccnc1 [Compound 14]	> 100			
O=P(O)(O)Cc1cnccn1 [Compound 16, Pyrazin-2-ylmethylphosphonic acid disodium salt]	> 100			
O=P(O)(O)c1ccccc1 [Compound 18, Phenylphosphonic acid disodium salt]	> 100	> 49.7	> 100	
O=P(O)(O)Cc1ccccc1 [Compound 19, Benzylphosphonic acid disodium salt]	> 100	> 49.7	> 100	
O=P(O)(O)CCc1ccccc1 [Compound 20, 2-Phenylethylphosphonic acid disodium salt]	> 100	> 49.7	> 100	
O=P(O)(O)Cc1ccc(Cl)c(Cl)c1 [Compound 21]	> 100	> 49.7	> 100	inhibitory activity against EcDXR (in words) ([6]; up to 100 μM): essentially no activity; inhibitory activity against MtDXR (in words) [2]: essentially no activity
O=P(O)(O)CCc1ccccc1O [Compound 22, 2-(2-Hydroxyphenyl)ethylphosphonic acid disodium salt]	> 100	> 49.7	> 100	inhibitory activity against EcDXR (in words) ([6]; up to 100 μM): no inhibitory activity
O=P(O)(O)Cc1cccc(O)c1O [Compound 23]	> 100	> 49.7	> 100	inhibitory activity against EcDXR (in words) ([6]; up to 100 μM): no inhibitory activity
O=c1ccc(CP(=O)(O)O)cn1O [Compound 24, 5-(1-Hydroxy-pyridin-2-one)methylphosphonic acid disodium salt]		> 49.7		inhibitory activity against EcDXR (in words) ([6]; up to 100 μM): essentially inactive

SMILES	Ki [2] [µM]	Ki [6] [µM]	Ki ([6]; read-out: EcDXR Ki) [µM]	further results
O=c1cccc(CCP(=O)(O)O)[nH]1 [Compound 25, 2-(Pyridin-2-one-6-yl)ethylphosphonic acid disodium salt]		> 49.7		inhibitory activity against EcDXR (in words) ([6]; up to 100 μM): essentially inactive
O=P(O)(O)Cc1cc(-c2ccc(F)cc2)ccn1 [Compound 28, 4-(4-Fluorophenyl)pyridin-2-ylmethylphosphonic acid disodium salt]	> 100			
O=P(O)(O)Cc1ccc(O)cn1 [Compound 30, (5-Hydroxylpyridin-2-yl)methylphosphonic acid disodium salt]				times as potent as 8 against EcDXR ([6]; Ki ratio to compound 8): ~ 3 ×
O=P(O)(O)Cc1ccc(OCc2ccccc2)cn1 [Compound 31, (5-Benzyloxypyridin-2-yl)methylphosphonic acid disodium salt]	> 100	> 49.7	> 100	inhibitory activity against EcDXR (in words) [6]: inactive
O=P(O)(O)Cc1cccc(-c2ccccc2)n1 [Compound 33, (6-Phenylpyridin-2-yl)methylphosphonic acid disodium salt]	> 100			
O=P(O)(O)Cc1ccc(-c2ccc(Cl)cc2)cn1 [Compound 35, 5-(4-Chlorophenyl)pyridin-2-ylmethylphosphonic acid disodium salt]	> 100			
Cc1ccc(-c2ccc(CP(=O)(O)O)nc2)cc1 [Compound 36, 5-(4-Methylphenyl)pyridin-2-ylmethylphosphonic acid disodium salt]	> 100			
COc1cccc(-c2ccc(CP(=O)(O)O)nc2)c1 [Compound 37, 5-(3-Methoxyphenyl)pyridin-2-ylmethylphosphonic acid disodium salt]	> 100			
O=C(O)c1ccccn1 [Compound 39]	> 100	> 49.7	> 100	
O=C(O)Cc1ccccn1 [Compound 40]	> 100	> 49.7	> 100	
O=C(O)Cc1cccnc1 [Compound 41]	> 100	> 49.7	> 100	
O=C(O)Cc1ccncc1 [Compound 42]	> 100	> 49.7	> 100	
O=C(NO)c1ccccn1 [Compound 43, N-hydroxy-pyridine-2-carboxamide]		> 49.7		
O=C(Cc1ccccn1)NO [Compound 44, N-hydroxy-(pyridin-2-yl)acetamide]		> 49.7		
O=C(O)c1ccc(-c2ccccc2)cn1 [Compound 45, 5-Phenylpyridine-2-carboxylic acid]	> 100	> 49.7	> 100	
O=C(O)Cc1ccc(-c2ccccc2)cn1 [Compound 46, (5-Phenylpyridin-2-yl)acetic acid]		> 49.7		
O=C(Cc1ccc(-c2ccccc2)cn1)NO [Compound 47, N-hydroxy-(5-phenylpyridin-2-yl)acetamide]		> 49.7		
O=S(=O)(O)Cc1ccc(-c2ccccc2)cn1 [Compound 48, 5-Phenylpyridin-2-ylmethanesulfonic acid sodium salt]	> 100	> 49.7	> 100	
CC(=O)[C@@H](O)[C@H](O)COP(=O)(O)O [DXP, 1-deoxy-D-xylulose-5-phosphate]				Km [7]: 99 µM; Km [8]: 47.1 µM
